Results from PubChem BioAssay AID179 (DTP/NCI, 2004).
Where “and” joins values, the source holds several entries; their conditions need not be identical. Equal values may be shown once. Calls of active or inactive are those of the source.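 How the source made its calls: active means compounds giving half or more protection of infected cells from virus-caused growth loss, again on retest; inactive means the rest.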 Where a SMILES comes first, the peptide text is derived from it. The star is where a group is joined. Boc = CC(C)(C)OC(=O)*; OSu = O=C1CCC(=O)N1O*

System: CEM cells HIV-1 protection, formazan growth assay
Assay: NCI AIDS Antiviral Assay
Details: for IC50: measured here: growth of uninfected CEM cells
Method in brief: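 Five concentrations of each compound were applied to infected and uninfected human CEM cells. Protection from HIV-1 was judged from growth measured with a soluble formazan assay.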

Row | SMILES | EC50 | IC50 | outcome
1 | c1ccc2c3[nH]c(c2c1)=Nc1ccc(cc1)-c1nc2ccc(cc2o1)N=c1[nH]c(c2ccccc12)=Nc1ccc2nc(oc2c1)-c1ccc(cc1)N=3 | > 200 µM | 37.2 µM | 
2 | Cc1cccc(C)c1N1C(=O)C(=O)C(c2nc3ccccc3s2)C(=Nc2cccc3c(=O)[nH][nH]c(=O)c23)C1=O (stereo not given) |  |  | inactive
3 | C=CC[C@@]1(C#N)C[C@H](C[C@]2(C#N)C[C@H](CCl)OC(C)(C)O2)OC(C)(C)O1 | > 200 µM | 107 µM | 
4 | CN(C)C=Nc1cccc2c1NSN2 | > 200 µM | > 200 µM | 
5 | NC(=O)CN(CC(N)=O)C(N)=O | > 724 µM | > 724 µM | 
6 | Cc1cccc(NC(=O)Nc2cccc(Cl)c2Cl)n1 | > 200 µM | > 200 µM | 
7 | C/C(CN1C(=O)c2ccccc2C1=O)=N\NS(=O)(=O)c1cccc([N+](=O)[O-])c1 | > 617 µM | > 617 µM | 
8 | CCCCCCNCCCNc1c2ccccc2nc2cccc([N+](=O)[O-])c12 | > 2 µM | 0.138 µM | 
9 | COc1cc(CO)c(CC(=O)NCCCc2ccccc2)cc1OC | > 200 µM | 18.2 µM | 
10 | O=C(Nc1cc(S(=O)(=O)O)cc2cc(S(=O)(=O)O)c(N=Nc3cc(Nc4nc(Cl)nc(Nc5ccc(S(=O)(=O)O)cc5)n4)ccc3S(=O)(=O)O)c(O)c12)c1ccccc1 |  |  | inactive
11 | COc1cc([N+](=O)[O-])ccc1NC(=O)Nc1cc(C)ccn1 | > 200 µM | > 200 µM | 
12 | O=C(O)C(CS(=O)(=O)O)S(=O)(=O)O (stereo not given) |  |  | inactive
13 | CCOC(=O)Nc1ccc(/C=C\c2ccnc3ccccc23)cc1 | > 16.2 µM | 10 µM | 
14 | C/C(=N\NC(N)=O)C(CN(C)C)C(c1ccccc1)c1c(O)c2ccccc2oc1=O (stereo not given) | > 91.2 µM | 66.1 µM | 
15 | CC1NC(=O)c2c(-c3ccccc3)nn(-c3ccccc3)c2NC1=O (stereo not given) | > 200 µM | > 200 µM | 
16 | CC(C)(C)[Si](C)(C)OCC1OC(n2ccc(=O)[nH]c2=O)C(O[Si](C)(C)C(C)(C)C)C1(CC#N)Sc1ccccc1 (stereo not given) | > 200 µM | 10.7 µM | 
17 | CCOC(=O)N1Cc2ccoc2C1 | > 75.9 µM | > 75.9 µM | 
18 | COC(=O)c1cccc2c3ccccc3c3ccccc3c12 |  |  | inactive
19 | CCn1c2ccccc2c2nnc(NCCCO)nc21 | > 200 µM | 141 µM | 
20 | S=C(Nc1ccc(Cl)c(Cl)c1)N1c2ccccc2-n2cccc2C1c1cccnc1 (stereo not given) | > 49 µM | 25.1 µM | 
21 | O=C(COc1cc(=O)oc2ccccc12)c1ccccc1 | > 200 µM | 151 µM | 
22 | COc1ccc(Nc2nc(NS(=O)(=O)c3cc(C)c(Cl)cc3S)n[nH]2)cc1 | 178 µM | 257 µM | 

Row | SMILES | EC50 | IC50 | outcome
23 | CCCCCC(/C=C/[C@@H]1[C@H]2CC(=O)O[C@H]2C[C@H]1N1CCOCC1)OC1CCCO1 (stereo not given in full) | > 316 µM | > 316 µM | 
24 | COC(=O)CCC1(CCC(=O)OC)CCCCCCC(CCC(=O)OC)(CCC(=O)OC)C(=O)C1=O | > 200 µM | > 200 µM | 
25 | O=C(Nc1cc2c(oc1=O)CCCCCC2)c1cnccn1 | > 50.1 µM | > 50.1 µM | 
26 | CO/C(N)=C(\C#N)N=Cc1cccs1 | > 200 µM | 117 µM | 
27 | CCOC(=O)/C=C/c1ccccc1Cl | > 33.9 µM | > 33.9 µM | 
28 | NC(Cc1ccc[se]1)C(=O)O (stereo not given) | > 200 µM | > 200 µM | 
29 | CC(C)OC(=O)C1Cc2c([nH]c3ccccc23)C(c2ccccc2)N1 (stereo not given) |  |  | inactive
30 | COc1ccc2c(c1)CCc1c(-c3noc4c3CCc3cc(OC)ccc3-4)noc1-2 | > 234 µM | > 234 µM | 
31 | COc1ccc2c(c1)OC[C@@H]1c3cc(NC(=O)c4ccccc4)c(OCc4ccccc4)cc3N(S(=O)(=O)c3ccccc3)[C@H]21 | > 200 µM | > 200 µM | 
32 | O=C1CCCC2=C(N1)C(=O)C=CC2=O | > 955 µM | 8.71 µM | 
33 | CC(C)N(C(=O)C12C3(C(=O)C(C)(C)C)C4C5(C#N)C3C1(C(=O)C(C)(C)C)C5C42C(=O)C(C)(C)C)C(C)C (stereo not given) | > 151 µM | > 151 µM | 
34 | CC(NC(=O)C(NC(=O)OC(C)(C)C)C(C)C)C(=O)NCC(=O)ON1C(=O)CCC1=O (stereo not drawn) (Boc-Val-Ala-Gly-OSu; configuration not given here) | > 200 µM | 117 µM | 
35 | O=C(O)C1=CC(=C(c2ccc(O)c(C(=O)O)c2)c2ccc(O)c(C(=O)O)c2)C=CC1=O | > 1660 µM | > 1660 µM | 
36 | CN1CCOC1(C)CO (stereo not given) | > 200 µM | > 200 µM | 
37 | COc1ccc(NC(=O)CSc2nc(C)nc3c2sc(=S)n3-c2ccccc2)cc1 | > 200 µM | > 200 µM | 
38 | NC(=S)N/N=C1\C(=O)N(CCc2ccccc2)C(=O)C1C(=O)NCCc1ccccc1 (stereo not given) | > 81.3 µM | 70.8 µM | 
39 | CC(C)CCCC(C)C1CCC2C3CCC4CC5(CCC4(C)C3CCC12C)NCCCS5 (stereo not given) | > 1.58 µM | > 1.58 µM | 
40 | O=[N+]([O-])c1ccc(N=Nc2c(O)c(N=Nc3cc([N+](=O)[O-])cc([N+](=O)[O-])c3O)cc(N=Nc3cc(S(=O)(=O)O)cc4cc(S(=O)(=O)O)cc(O)c34)c2O)cc1 | 16.6 µM | 50.1 µM | 
41 | c1ccc2c(c1)c1c(n2CCOCCN2CCCCC2)CCCC1 | > 200 µM | 8.32 µM | 
42 | CC(C)/C(Cl)=N/OC(=O)Nc1cccc(C(F)(F)F)c1 | > 20 µM | 3.02 µM | 
43 | O=C(O)c1ccccc1-c1c2ccc(=O)c(Br)c-2oc2c(Br)c(O)ccc12 | > 200 µM | 37.2 µM | 
44 | COc1ccc(C2C(C#N)=C(N)C(C#N)=C3Oc4ccccc4N32)cc1 (stereo not given) | > 200 µM | > 200 µM | 

Row | SMILES | EC50 | IC50 | outcome
45 | COc1ccccc1-n1cnc2c1NC(C)(C)N=C2C(N)=O | > 200 µM | > 200 µM | 
46 | CCOP(=O)(OCC)OC1CC(n2cc(C)c(=O)n(C)c2=O)OC1CO[Si](C)(C)C(C)(C)C (stereo not given) | > 200 µM | 107 µM | 
47 | Cc1ccc(N2CCC3(CC2)OCCO3)cc1 |  |  | inactive
48 | COP(=O)(OC)C1c2ccccc2-c2cccc(C(=O)O)c21 (stereo not given) | > 200 µM | > 200 µM | 
49 | O=C(CC(C(=O)c1ccsc1)c1ccsc1)c1ccsc1 (stereo not given) | > 200 µM | 22.4 µM | 
50 | CCCCCCc1cc2cc(C(=O)Nc3nc(C45CC6CC(CC(C6)C4)C5)cs3)c(=O)oc2cc1O | > 100 µM | 8.51 µM | 
51 | O=c1[nH]c(=O)n(C2OC(CF)C(O)C2O)cc1Br (stereo not given) | > 200 µM | > 200 µM | 
52 | COc1ccc(N2C(Cl)C(=O)C2c2c[nH]c3ccccc23)cc1 (stereo not given) | > 151 µM | 132 µM | 
53 | O=C1/C(=C/c2ccc(Cl)cc2)CSC/C1=C\c1ccc(Cl)cc1 | > 200 µM | 2.63 µM | 
54 | c1ccc2c(c1)Sc1ccccc1C2=C1c2ccccc2Sc2ccccc21 | > 200 µM | 10.7 µM | 
55 | CCOC(=O)C1C(=O)CN2CCc3c([nH]c4ccccc34)C12 (stereo not given) | > 29.5 µM | > 29.5 µM | 
56 | CN(C)c1nncc2n[nH]nc12 | > 200 µM | > 200 µM | 
57 | c1ccc(P(CCP(CCP(c2ccccc2)c2ccccc2)c2ccccc2)CCP(c2ccccc2)c2ccccc2)cc1 (stereo not given) | > 10.7 µM | > 10.7 µM | 
58 | NC(Cc1ccc(CP(=O)(O)O)cc1)C(=O)O (stereo not given) | > 200 µM | > 200 µM | 
59 | O=C(O)[C@H](Cc1ccccc1)NCCN1CCC[C@H]1C(=O)O | > 200 µM | > 200 µM | 
60 | Cc1cc(N(CCC#N)CCC#N)ccc1/C=C/C(=O)Nc1cccc(Cl)c1 | > 66.1 µM | > 66.1 µM | 
61 | C=[CH][Sn]([CH]=C)([S]c1cccc2cccnc12)[S]c1cccc2cccnc12 |  |  | inactive
62 | CC(=O)Oc1cc2c(n(C)c1=O)-c1ccccc1C2 | > 200 µM | 6.61 µM | 
63 | Nc1n[nH]c(N)n1 | > 2510 µM | > 200 µM and 282 µM | 
64 | CCOP(=O)(/C=C/c1ccccc1)OCC |  |  | inactive
65 | CC1=C(CO)C(=O)O[C@@H]([C@@H](CO)[C@H]2CCC3C4C[C@@H](O)[C@@]5(O)CC=CC(=O)[C@]5(C)C4CC[C@@]32C)C1 (stereo not given in full) |  |  | inactive
66 | Cc1cc2nnc(-c3cccc([N+](=O)[O-])c3)n2c2nnnn12 | > 200 µM | > 200 µM | 

Row | SMILES | EC50 | IC50 | outcome
67 | COc1cnn(-c2ccccc2)c(=O)c1SCc1ccc(Cl)c(Cl)c1 | > 34.7 µM | 27.5 µM | 
68 | CN1C(=O)NC2ON=C(c3ccccc3)C2C1=O (stereo not given) | > 200 µM | 53.7 µM | 
69 | CCCCCCCCCCCCCCCCCC(=O)O[C@H](COC(=O)CCCCCCCCCCC)COC(=O)CCCCCCCCCCCCCCC | > 100 µM | > 100 µM | 
70 | CSC(=S)Nc1cc(C)cc(C)n1 | > 200 µM | > 200 µM | 
71 | CC1OC(n2cc(F)c(=O)[nH]c2=O)C=CC1O (stereo not given) | > 1020 µM | 407 µM | 
72 | O=C1C(c2ccccc2)=C(c2ccccc2)C(c2ccccc2)/C1=C1\C(=O)C(c2ccccc2)=C(c2ccccc2)C1c1ccccc1 (stereo not given) |  |  | inactive
73 | CCCCCC/C(CC(=O)CCC(=O)NCCc1ccccc1)=N\NC(=O)c1ccc2ccccc2c1O | > 251 µM | 14.5 µM | 
74 | NC(=O)CCCCNC(=O)c1ccccc1SC(=O)CCCC[n+]1ccccc1 | 1.26 µM | 10.7 µM | 
75 | O=C(/C=C(\C(=O)c1cccs1)c1cccs1)c1ccc(C(=O)/C=C(\C(=O)c2cccs2)c2cccs2)cc1 | > 200 µM | > 200 µM | 
76 | COC(=O)C1(C(=O)OC)N=C(C)OC1/C=C/c1ccccc1 (stereo not given) | > 200 µM | > 100 µM | 
77 | Cc1cc(C)c2c(c1)CC1(Cc3c(ccc(C)c3C)C1=O)C2=O (stereo not given) | > 100 µM | > 100 µM | 
78 | CC1CC(O)c2ccccc2O1 (stereo not given) | > 200 µM | > 200 µM | 
79 | CC(=O)NC(C)(C)C1CC=C(C)CC1 (stereo not given) | > 200 µM | > 200 µM | 
80 | COc1ccc(C)cc1C(=C=C=C=C(c1cc(C)ccc1OC)c1ccccc1OCc1ccccc1)c1ccccc1OCc1ccccc1 | > 44.7 µM | 36.3 µM | 
81 | CC1=NOC(=O)/C1=C/c1ccc([N+](=O)[O-])cc1 | > 1070 µM | 933 µM | 
82 | COC(=O)[C@H](C)NC(=O)[C@H](NS(=O)(=O)c1nc2ccccc2s1)c1ccccc1 | > 200 µM | 37.2 µM | 
83 | O=C(/C=C/c1ccc(Cl)c(Cl)c1)C1CCC(Cl)CC1 (stereo not given) | > 6.31 µM | > 6.31 µM | 
84 | CN1N=C(c2ccncc2)OC1c1cccc(C(F)(F)F)c1 (stereo not given) | > 200 µM | 44.7 µM | 
85 | Cc1cc(C(=O)c2ccccc2)c2oc(-c3ccccc3)c(Cl)c(=O)c2c1 | > 47.9 µM | > 47.9 µM | 
